Tested on: HIV-1
Test: Resistance test vector (PHENOSENSE) phenotypic susceptibility assay, fold change in IC50, correlated with genotype (Fisher's Exact test, odds ratio)
Assay type: cell-based, human immunodeficiency virus type 1
Source text: See Petropoulos et al., 2000, Antimicrob. Agents Chemother. 44:920-928; U.S. Pat. Nos. 5,837,464 and 6,242,187. PHENOSENSE™ is a phenotypic assay that achieves the benefits of phenotypic testing and overcomes the drawbacks of previous assays.
PHENOSENSE™ can obtain results with only one round of viral replication, thereby avoiding selection of subpopulations of virus that can occur during preparation of viral stocks required for assays that rely on fully infectious virus.
A resistance test vector (“RTV”) can then be constructed by incorporating the amplified viral gene sequences into a replication defective viral vector by using any method known in the art of incorporating gene sequences into a vector. In one embodiment, restrictions enzymes and conventional cloning methods are used. See Sambrook et al., 2001, Molecular Cloning: A Laboratory Manual, Cold Spring Harbor Laboratory, 3rd ed., NY; and Ausubel et al., 1989, Current Protocols in Molecular Biology, Greene Publishing Associates and Wiley Interscience, NY. In a preferred embodiment, ApaI and PinAI restriction enzymes are used. Preferably, the replication defective viral vector is the indicator gene viral vector (“IGVV”). In a preferred embodiment, the viral vector contains a means for detecting replication of the RTV. Preferably, the viral vector contains a luciferase expression cassette.
The assay can be performed by first co-transfecting host cells with RTV DNA and a plasmid that expresses the envelope proteins of another retrovirus, for example, amphotropic murine leukemia virus (MLV). Following transfection, viral particles can be harvested from the cell culture and used to infect fresh target cells in the presence of varying amounts of anti-viral drug(s). The completion of a single round of viral replication in the fresh target cells can be detected by the means for detecting replication contained in the vector. In a preferred embodiment, the completion of a single round of viral replication results in the production of luciferase. By monitoring the amount of, e.g., luciferase activity in the presence of the varying amounts of antiviral drug(s), a resistance curve can be constructed by plotting luciferase activity versus drug concentration. The susceptibility of an HIV, or population of HIV, can be determined by measuring the concentration of antiviral drug at which the luciferase activity detected is half-maximal. This number, the IC50, provides a standard and convenient measure of drug resistance.
Patient derived segment(s) corresponding to the HIV protease and reverse transcriptase coding regions were amplified by the reverse transcription polymerase chain reaction method (RT PCR) using viral RNA isolated from viral particles present in the plasma or serum of HIV infected individuals as follows. Viral RNA was isolated from the plasma or serum using oligo-dT magnetic beads (Dynal Biotech, Oslo, Norway), followed by washing and elution of viral RNA. The RT PCR protocol was divided into two steps. A retroviral reverse transcriptase (e.g. Moloney MuLV reverse transcriptase (Roche Molecular Systems, Inc., Branchburg, N.J.; Invitrogen, Carlsbad, Calif.), or avian myeloblastosis virus (AMV) reverse transcriptase, (Boehringer Mannheim, Indianapolis, Ind.) was used to copy viral RNA into cDNA. The cDNA was then amplified using a thermostable DNA polymerase (e.g. Taq (Roche Molecular Systems, Inc., Branchburg, N.J.), Tth (Roche Molecular Systems, Inc., Branchburg, N.J.), PRIMEZYME™ (isolated from Thermus brockianus, Biometra, Gottingen, Germany)) or a combination of thermostable polymerases as described for the performance of “long PCR” (Barnes, W.M., 1994, Proc. Natl. Acad. Sci, USA 91, 2216 20) (e.g. Expand High Fidelity PCR System (Taq+Pwo), (Boehringer Mannheim. Indianapolis, Ind.); GENEAMP XL™ PCR kit (Tth+Vent), (Roche Molecular Systems, Inc., Branchburg, N.J.); or […] II®, Clontech, Palo Alto, Calif.)

CC(C)CN(C[C@@H](O)[C@H](Cc1ccccc1)NC(=O)O[C@H]1CO[C@H]2OCC[C@H]21)S(=O)(=O)c1ccc(N)cc1 [DRV, darunavir]
Odds Ratio (mutation A71I in PR, reduced susceptibility (FC>2)): 1.74
Odds Ratio (mutation A71L in PR, reduced susceptibility (FC>2)): 16.53
Odds Ratio (mutation A71T in PR, increased susceptibility (Table 3)): 0.74
Odds Ratio (mutation A431I in gag, reduced susceptibility (FC>2)): 5.60
Odds Ratio (mutation A431V in gag, reduced susceptibility (FC>2)): 1.94
Odds Ratio (mutation C67F in PR, reduced susceptibility (FC>2)): 3.72
Odds Ratio (mutation C95F in PR, reduced susceptibility (FC>2)): 3.13
Odds Ratio (mutation D30N in PR, increased susceptibility (Table 3)): 0.20
Odds Ratio (mutation D425E in gag, reduced susceptibility (FC>2)): 1.49
Odds Ratio (mutation E35N in PR, reduced susceptibility (FC>2)): 2.90
Odds Ratio (mutation E428D in gag, reduced susceptibility (FC>2)): 2.41
Odds Ratio (mutation E467K in gag, reduced susceptibility (FC>2)): 2.41
Odds Ratio (mutation E468K in gag, reduced susceptibility (FC>2)): 2.24
Odds Ratio (mutation F53L in PR, reduced susceptibility (FC>2)): 2.30
Odds Ratio (mutation F53Y in PR, reduced susceptibility (FC>2)): 3.43
Odds Ratio (mutation F463L in gag, reduced susceptibility (FC>2)): 1.68
Odds Ratio (mutation F463S in gag, reduced susceptibility (FC>2)): 3.18
Odds Ratio (mutation F463V in gag, reduced susceptibility (FC>2)): 2.89
Odds Ratio (mutation F465L in gag, reduced susceptibility (FC>2)): 1.66
Odds Ratio (mutation F465S in gag, reduced susceptibility (FC>2)): 2.45
Odds Ratio (mutation G16A in PR, reduced susceptibility (FC>2)): 3.73
Odds Ratio (mutation G73A in PR, reduced susceptibility (FC>2)): 8.81
Odds Ratio (mutation G73C in PR, reduced susceptibility (FC>2)): 2.24
Odds Ratio (mutation G73T in PR, reduced susceptibility (FC>2)): 7.84
Odds Ratio (mutation H69R in PR, reduced susceptibility (FC>2)): 2.59
Odds Ratio (mutation H441Q in gag, reduced susceptibility (FC>2)): 1.99
Odds Ratio (mutation H441Y in gag, increased susceptibility (Table 3)): 0.59
Odds Ratio (mutation I13V in PR, reduced susceptibility (FC>2)): 1.71
Odds Ratio (mutation I15V in PR, reduced susceptibility (FC>2)): 1.53
Odds Ratio (mutation I47V in PR, reduced susceptibility (FC>2)): 13.64
Odds Ratio (mutation I50L in PR, increased susceptibility (Table 3)): 0.12
Odds Ratio (mutation I54A in PR, reduced susceptibility (FC>2)): 2.37
Odds Ratio (mutation I54L in PR, reduced susceptibility (FC>2)): 5.50
Odds Ratio (mutation I54M in PR, reduced susceptibility (FC>2)): 14.47
Odds Ratio (mutation I64L in PR, increased susceptibility (Table 3)): 0.62
Odds Ratio (mutation I64V in PR, increased susceptibility (Table 3)): 0.84
Odds Ratio (mutation I66F in PR, reduced susceptibility (FC>2)): 3.25
Odds Ratio (mutation I66V in PR, reduced susceptibility (FC>2)): 4.86
Odds Ratio (mutation I72L in PR, reduced susceptibility (FC>2)): 3.02
Odds Ratio (mutation I84V in PR, reduced susceptibility (FC>2)): 7.06
Odds Ratio (mutation I85V in PR, reduced susceptibility (FC>2)): 2.76
Odds Ratio (mutation I93L in PR, increased susceptibility (Table 3)): 0.88
Odds Ratio (mutation I437V in gag, reduced susceptibility (FC>2)): 1.95
Odds Ratio (mutation K20R in PR, reduced susceptibility (FC>2)): 1.90
Odds Ratio (mutation K20T in PR, reduced susceptibility (FC>2)): 1.54
Odds Ratio (mutation K20V in PR, reduced susceptibility (FC>2)): 3.40
Odds Ratio (mutation K43R in PR, increased susceptibility (Table 3)): 0.30
Odds Ratio (mutation K43T in PR, reduced susceptibility (FC>2)): 3.72
Odds Ratio (mutation K45R in PR, increased susceptibility (Table 3)): 0.35
Odds Ratio (mutation K55N in PR, reduced susceptibility (FC>2)): 10.28
Odds Ratio (mutation K55R in PR, reduced susceptibility (FC>2)): 2.70
Odds Ratio (mutation L10F in PR, reduced susceptibility (FC>2)): 2.59
Odds Ratio (mutation L19P in PR, reduced susceptibility (FC>2)): 7.16
Odds Ratio (mutation L23I in PR, reduced susceptibility (FC>2)): 2.10
Odds Ratio (mutation L24F in PR, reduced susceptibility (FC>2)): 8.57
Odds Ratio (mutation L33F in PR, reduced susceptibility (FC>2)): 6.78
Odds Ratio (mutation L63A in PR, increased susceptibility (Table 3)): 0.53
Odds Ratio (mutation L63Q in PR, increased susceptibility (Table 3)): 0.49
Odds Ratio (mutation L63S in PR, increased susceptibility (Table 3)): 0.54
Odds Ratio (mutation L76V in PR, reduced susceptibility (FC>2)): 11.18
Odds Ratio (mutation L89I in PR, reduced susceptibility (FC>2)): 2.16
Odds Ratio (mutation L89M in PR, reduced susceptibility (FC>2)): 1.51
Odds Ratio (mutation L89V in PR, reduced susceptibility (FC>2)): 44.56
Odds Ratio (mutation L449V in gag, reduced susceptibility (FC>2)): 4.73
Odds Ratio (mutation L486S in gag, increased susceptibility (Table 3)): 0.51
Odds Ratio (mutation M36L in PR, reduced susceptibility (FC>2)): 2.20
Odds Ratio (mutation M46I in PR, reduced susceptibility (FC>2)): 1.92
Odds Ratio (mutation M46L in PR, reduced susceptibility (FC>2)): 1.60
Odds Ratio (mutation N88D in PR, increased susceptibility (Table 3)): 0.34
Odds Ratio (mutation N88S in PR, increased susceptibility (Table 3)): 0.17
Odds Ratio (mutation P79A in PR, reduced susceptibility (FC>2)): 5.35
Odds Ratio (mutation P79S in PR, reduced susceptibility (FC>2)): 4.96
Odds Ratio (mutation P453L in gag, reduced susceptibility (FC>2)): 1.80
Odds Ratio (mutation P453V in gag, reduced susceptibility (FC>2)): 6.86
Odds Ratio (mutation P459T in gag, reduced susceptibility (FC>2)): 1.69
Odds Ratio (mutation Q58E in PR, reduced susceptibility (FC>2)): 2.41
Odds Ratio (mutation Q61N in PR, reduced susceptibility (FC>2)): 2.48
Odds Ratio (mutation R452K in gag, reduced susceptibility (FC>2)): 2.99
Odds Ratio (mutation R452S in gag, reduced susceptibility (FC>2)): 3.92
Odds Ratio (mutation S451N in gag, increased susceptibility (Table 3)): 0.68
Odds Ratio (mutation S451T in gag, reduced susceptibility (FC>2)): 1.78
Odds Ratio (mutation S462N in gag, reduced susceptibility (FC>2)): 2.29
Odds Ratio (mutation S488A in gag, reduced susceptibility (FC>2)): 2.02
Odds Ratio (mutation S498L in gag, increased susceptibility (Table 3)): 0.48
Odds Ratio (mutation S499L in gag, increased susceptibility (Table 3)): 0.56
Odds Ratio (mutation T4A in PR, reduced susceptibility (FC>2)): 10.65
Odds Ratio (mutation T4S in PR, reduced susceptibility (FC>2)): 2.80
Odds Ratio (mutation T12P in PR, reduced susceptibility (FC>2)): 1.84
Odds Ratio (mutation V11I in PR, reduced susceptibility (FC>2)): 12.85
Odds Ratio (mutation V32I in PR, reduced susceptibility (FC>2)): 18.66
Odds Ratio (mutation V77I in PR, increased susceptibility (Table 3)): 0.64
Odds Ratio (mutation V82A in PR, reduced susceptibility (FC>2)): 1.12
Odds Ratio (mutation V82C in PR, reduced susceptibility (FC>2)): 3.67
Odds Ratio (mutation V82F in PR, reduced susceptibility (FC>2)): 5.47
Odds Ratio (mutation V82I in PR, reduced susceptibility (FC>2)): 2.31
Odds Ratio (mutation V82L in PR, reduced susceptibility (FC>2)): 5.44
Odds Ratio (mutation V82T in PR, reduced susceptibility (FC>2)): 1.84

From patent publication US20100227313A1, “Methods and Compositions for Determining Altered Susceptibility of HIV-1 to Protease Inhibitor Treatment” (priority 2007, published 2010)
